Laboratory results reported in article PMC5095173, “Disulfide-activated protein kinase G Iα regulates cardiac diastolic relaxation and fine-tunes the Frank–Starling response” (Nature Communications, 2016).

What was measured:
[1] = test system: another kinase; settings: ref www.nature.com/ncomms/2015/150810/ncomms8920; cited from earlier work
Description: page 15: reasons explained, are complicated to interpret and they are not anticipated to be as effective as many would envisage. […] Now high profile preclinical studies show ...

[2] = 37 °C; value taken for Ca2+ calibration, no reference given; read-out: Kd of Fluo-3; cited from earlier work
Method: To measure cytosolic Ca^2+ levels, cells were loaded with the acetoxymethyl (AM) ester form Fluo-3 (Molecular Probes) and excited continuously at 488 nm. Emitted fluorescence was measured with a 515 nm long-pass filter. Raw fluorescent signals were calibrated off-line as per equation (1). […] Background fluorescence was subtracted from all raw signals. Custom-written Excel routines were used to measure Ca^2+ transient amplitude, diastolic Ca^2+ levels, rate of decay of the Ca^2+ transient and SR Ca^2+ content. SR Ca^2+ content was estimated fr ...

[3] = test system: WT PKGIα; assay: Oxidation of recombinant WT PKGIα to disulfide dimer (SDS-PAGE); format: biochemical, human; settings: 10 mM lipoic acid, 2 h on ice; confirmed by SDS-PAGE
Method: A pCDNA3 expression vector encoding human FLAG-tagged PKGIα (ref. [41]) underwent site-directed mutagenesis to generate constructs for untagged WT, C42S, M438G and C42S/M438G PKGIα. Mutations were introduced using the QuikChange II Site-Directed Mutagenesis Kit (Agilent) according to the manufacturer's instructions. Expression and purification of the PKGIα mutants was performed according to a published method[42] as follows: suspension FreeStyle 293-F cells (ThermoFisher Scientific) were transfected with the appropriate PKGIα construct using the stable cationic polymer polyethyleneimine (PEI) as a transfection reagent. After ∼72 h cells were harvested by centrifugation (400g; room temperature; 15 min), re-suspended in ice cold lysis buffer (25 mM sodium phosphate buffer pH 6.8; 10 mM ethylenediaminetetraacetic acid (EDTA); 100 mM NaCl; 10 mM benzamidine hydrochloride; and 10 mM dithiothreitol (DTT)) and frozen in liquid N2. Cells were lysed by three freeze (liquid N2)-thaw (37 °C) cycles and the lysate was clarified by centrifugation at 140,000g and 4 °C for 30 min. […] Protein concentration was determined by Pierce BCA assay (ThermoFisher) and enzyme activity was confirmed using the Omnia kinase assay kit (ThermoFisher).

[4] = test system: PKGIα (analogue-sensitive C42S/M438G), cGMP-activated; assay: Chemical genetic phosphoproteomic screen, cGMP-activated PKGIα C42S/M438G versus unactivated control; format: biochemical, human PKGIα; substrates in rat heart homogenate; settings: cGMP activation; of 29 substrates with significant change
Description: We employed a chemical genetic method[18] to identify direct substrates of cGMP-activated PKGIα and disulfide bond-activated PKGIα in heart tissue. This method involves mutation of the ATP binding-site of the kinase of interest so that it can accept a ‘bulky' N6-alkylated ATP analogue for example, N6^−phenylethyl ATP. An oxygen atom on the γ phosphate is also replaced with a sulfur atom—giving an N6-alkylated ATPγS analogue—so that the mutant kinase catalyses the transfer of a thiophosphate group (–PO3S^3−) to its substrates instead of a phosphate. The thiophosphate group is nucleophilic, providing a basis for substrates of the analogue-sensitive kinase to be purified by a ‘covalent capture' protocol. LC–MS/MS allows identification of the substrate and localization of the phosphorylation site. Thiophosphorylated proteins can also be detected with a thiophosphate ester-specific antibody. Analogue-sensitive mutants of PKGIα and PKGIα C42S (which cannot form the activating intermolecular disulfide bond) were generated by mutating Met438 in the ATP-binding domain to Gly. This mutation was chosen based on a previous study where an analogue-sensitive mutant of the catalytic subunit of PKA—which shares sequence homology with PKGIα—was engineered. Detailed protocols are given below.
A pCDNA3 expression vector encoding human FLAG-tagged PKGIα (ref. [41]) underwent site-directed mutagenesis to generate constructs for untagged WT, C42S, M438G and C42S/M438G PKGIα. Mutations were introduced using the QuikChange II Site-Directed Mutagenesis Kit (Agilent) according to the manufacturer's instructions. Expression and purification of the PKGIα mutants was performed according to a published method[42] as follows: suspension FreeStyle 293-F cells (ThermoFisher Scientific) were transfected with the appropriate PKGIα construct using the stable cationic polymer polyethyleneimine (PEI) as a transfection reagent. After ∼72 h cells were harvested by centrifugation (400g; room temperature; 15 min), re-suspended in ice cold lysis buffer (25 mM sodium phosphate buffer pH 6.8; 10 mM ethylenediaminetetraacetic acid (EDTA); 100 mM NaCl; 10 mM benzamidine hydrochloride; and 10 mM dithiothreitol (DTT)) and frozen in liquid N2. Cells were lysed by three freeze (liquid N2)-thaw (37 °C) cycles and the lysate was clarified by centrifugation at 140,000g and 4 °C for 30 min. The soluble protein fraction was loaded onto a pre-equilibrated 8-(2-aminoethylamino)adenosine-3′, 5′-cyclic monophosphate column (8-AEA-cAMP agarose; BioLog, Germany) followed by washing with 20 column volumes of lysis buffer. The column was further washed with lysis buffer +3 M NaCl (5 column volumes) and PKGIα was then eluted with lysis buffer +150 mM NaCl and 500 μM cAMP. Removal of cAMP and buffer exchange was achieved by extensive dialysis against 25 mM sodium phosphate buffer pH 6.8, 2 mM EDTA and 100 mM NaCl. For ITC analysis, WT PKGIα was incubated with 10 mM lipoic acid for 2 h on ice to obtain ∼100% disulfide dimer (confirmed by SDS-PAGE). Oxidized WT or C42S PKGIα was further purified by size exclusion chromatography using a HiLoad 16/600 Superdex 200 pg column (GE Healthcare) with 50 mM sodium phosphate buffer pH 7.4 and 100 mM NaCl. Proteins were concentrated using Amicon Ultra centrifugal filter devices (Merck Millipore). DTT was absent in storage buffers so that the activating disulfide bond would not be reduced and so that the PKGIα M438G mutant would be oxidized to disulfide dimer in the presence of air (confirmed by SDS-PAGE). Protein concentration was determined by Pierce BCA assay (ThermoFisher) and enzyme activity was confirmed using the Omnia kinase assay kit (ThermoFisher).
Male Wistar rats (9–10 weeks; body weight 300–330 g) were euthanized by intraperitoneal injection of sodium pentobarbitone (200 mg kg^−1) with heparin (500 USP units). […]

[5] = test system: PKGIα Cys42 disulfide bond; settings: ref [3], [4]; cited from earlier work

CC(=O)N[C@@H](CS)C(=O)O [NAC, N-acetylcysteine]
effect on oxidation of another kinase [1]: promoted the oxidation of that target

Cc1ccc(N(CC(=O)O)CC(=O)O)c(OCCOc2cc(-c3c4cc(Cl)c(=O)cc-4oc4cc(O)c(Cl)cc34)ccc2N(CC(=O)O)CC(=O)O)c1 [Fluo-3]
Kd [2]: 864 nM

O=C(O)CCCC[C@@H]1CCSS1 (racemic) [lipoic acid]
disulfide dimer formed [3]: ~100%

Nc1nc2c(ncn2[C@@H]2O[C@@H]3COP(=O)(O)O[C@H]3[C@H]2O)c(=O)[nH]1 [cGMP, cyclic guanosine monophosphate, reference compound]
number of proteins with significantly increased phosphorylation when PKGIα was activated [4]: 28 | effect on formation of the Cys42 intermolecular disulfide bond [5]: inhibits formation of the Cys42 intermolecular disulfide bond
